Assay results taken from patent publication US11279707B2, “NEK inhibitors and methods of use” (DANA-FARBER CANCER INSTITUTE, INC., priority 2017, dated 2022).

Tests used:
Type in all cases: biochemical
CLK = test: kinase inhibition, CLK
SLK = SLK (Homo sapiens, UniProt Q9H2G2); test: kinase inhibition, SLK
DMPK = target: T1, DMPK (Homo sapiens, UniProt Q09013); test: kinase inhibition, DMPK
T1 sequence (Q09013 1-629): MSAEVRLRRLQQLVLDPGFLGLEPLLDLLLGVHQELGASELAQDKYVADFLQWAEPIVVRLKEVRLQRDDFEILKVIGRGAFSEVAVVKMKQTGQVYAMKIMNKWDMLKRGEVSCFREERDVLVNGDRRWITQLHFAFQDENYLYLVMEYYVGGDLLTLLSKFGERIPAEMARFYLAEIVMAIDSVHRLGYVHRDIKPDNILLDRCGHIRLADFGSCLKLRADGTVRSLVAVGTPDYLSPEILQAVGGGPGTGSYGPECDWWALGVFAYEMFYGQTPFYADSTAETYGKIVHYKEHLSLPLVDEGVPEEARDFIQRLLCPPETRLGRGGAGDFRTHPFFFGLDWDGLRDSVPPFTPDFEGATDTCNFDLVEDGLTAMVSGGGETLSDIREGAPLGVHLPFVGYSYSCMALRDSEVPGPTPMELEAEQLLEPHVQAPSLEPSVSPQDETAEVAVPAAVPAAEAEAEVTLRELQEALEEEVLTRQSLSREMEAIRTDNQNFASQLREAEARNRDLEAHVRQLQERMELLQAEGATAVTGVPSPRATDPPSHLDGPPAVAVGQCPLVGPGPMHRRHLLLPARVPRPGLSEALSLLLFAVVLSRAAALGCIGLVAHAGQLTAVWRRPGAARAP

MERTK = target: T2, MERTK (Homo sapiens, UniProt Q12866); test: kinase inhibition, MERTK
T2 sequence (Q12866 21-999): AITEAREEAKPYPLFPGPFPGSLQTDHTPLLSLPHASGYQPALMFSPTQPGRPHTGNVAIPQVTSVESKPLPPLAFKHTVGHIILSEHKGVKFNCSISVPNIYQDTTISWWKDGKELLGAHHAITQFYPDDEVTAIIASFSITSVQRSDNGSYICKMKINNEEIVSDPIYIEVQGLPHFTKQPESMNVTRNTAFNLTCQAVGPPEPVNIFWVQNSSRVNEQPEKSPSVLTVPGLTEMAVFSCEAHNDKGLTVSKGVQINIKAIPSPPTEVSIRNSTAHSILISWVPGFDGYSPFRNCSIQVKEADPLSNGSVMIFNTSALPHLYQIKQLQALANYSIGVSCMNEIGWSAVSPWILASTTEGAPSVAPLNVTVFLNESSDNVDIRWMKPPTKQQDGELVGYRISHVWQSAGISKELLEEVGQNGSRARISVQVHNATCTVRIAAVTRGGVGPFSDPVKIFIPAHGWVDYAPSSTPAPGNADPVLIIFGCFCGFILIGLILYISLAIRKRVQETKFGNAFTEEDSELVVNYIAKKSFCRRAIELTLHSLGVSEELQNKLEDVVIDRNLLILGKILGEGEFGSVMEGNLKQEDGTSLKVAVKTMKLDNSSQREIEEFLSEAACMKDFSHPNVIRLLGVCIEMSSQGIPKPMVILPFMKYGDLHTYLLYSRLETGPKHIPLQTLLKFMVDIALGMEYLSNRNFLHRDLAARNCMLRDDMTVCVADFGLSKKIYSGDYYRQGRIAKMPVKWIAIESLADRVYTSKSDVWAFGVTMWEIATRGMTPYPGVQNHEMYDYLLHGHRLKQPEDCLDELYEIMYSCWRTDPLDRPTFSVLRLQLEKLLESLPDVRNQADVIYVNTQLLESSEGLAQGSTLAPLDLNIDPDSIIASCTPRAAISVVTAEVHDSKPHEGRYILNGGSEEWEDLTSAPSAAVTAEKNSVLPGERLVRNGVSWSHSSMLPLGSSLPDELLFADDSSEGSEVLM

DRAK1 = target: T3, DRAK1 (Homo sapiens, UniProt Q9UEE5); test: kinase inhibition, DRAK1
T3 sequence (Q9UEE5 1-414): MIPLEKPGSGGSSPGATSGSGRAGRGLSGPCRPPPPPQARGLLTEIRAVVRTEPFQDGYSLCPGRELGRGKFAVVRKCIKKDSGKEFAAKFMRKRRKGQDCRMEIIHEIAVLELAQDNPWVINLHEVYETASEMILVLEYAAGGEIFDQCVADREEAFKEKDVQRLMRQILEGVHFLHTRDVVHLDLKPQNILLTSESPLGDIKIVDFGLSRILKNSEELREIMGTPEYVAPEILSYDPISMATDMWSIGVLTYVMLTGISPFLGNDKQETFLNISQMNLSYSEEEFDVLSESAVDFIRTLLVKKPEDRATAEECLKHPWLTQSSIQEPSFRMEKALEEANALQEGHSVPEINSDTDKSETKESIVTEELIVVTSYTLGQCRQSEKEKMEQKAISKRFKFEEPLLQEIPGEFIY

AXL = target: T4, AXL (Homo sapiens, UniProt P30530); test: kinase inhibition, AXL
T4 sequence (P30530 26-894): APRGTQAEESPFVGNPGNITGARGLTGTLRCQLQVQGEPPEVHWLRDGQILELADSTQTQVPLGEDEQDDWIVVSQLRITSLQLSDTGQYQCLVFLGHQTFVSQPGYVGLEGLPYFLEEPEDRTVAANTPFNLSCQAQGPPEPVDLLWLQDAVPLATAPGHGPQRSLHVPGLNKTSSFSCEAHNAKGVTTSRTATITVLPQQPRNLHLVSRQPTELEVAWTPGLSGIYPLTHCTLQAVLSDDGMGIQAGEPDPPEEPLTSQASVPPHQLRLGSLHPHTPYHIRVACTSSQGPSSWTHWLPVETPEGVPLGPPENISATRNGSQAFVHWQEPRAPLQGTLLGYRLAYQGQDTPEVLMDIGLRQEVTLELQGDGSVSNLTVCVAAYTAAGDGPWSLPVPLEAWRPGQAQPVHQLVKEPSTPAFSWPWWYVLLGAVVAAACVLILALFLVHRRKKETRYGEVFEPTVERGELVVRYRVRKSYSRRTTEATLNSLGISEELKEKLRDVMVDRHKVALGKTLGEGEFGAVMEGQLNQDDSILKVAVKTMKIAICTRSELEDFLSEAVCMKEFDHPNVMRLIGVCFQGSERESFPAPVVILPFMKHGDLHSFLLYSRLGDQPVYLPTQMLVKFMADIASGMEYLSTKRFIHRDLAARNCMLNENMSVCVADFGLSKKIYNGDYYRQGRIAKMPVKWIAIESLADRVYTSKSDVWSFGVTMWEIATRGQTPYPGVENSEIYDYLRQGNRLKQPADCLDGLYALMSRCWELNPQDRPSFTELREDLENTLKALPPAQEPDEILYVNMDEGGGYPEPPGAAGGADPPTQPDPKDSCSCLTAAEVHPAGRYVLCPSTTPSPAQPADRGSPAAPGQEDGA

SLK, sequence (Q9H2G2 whole entry): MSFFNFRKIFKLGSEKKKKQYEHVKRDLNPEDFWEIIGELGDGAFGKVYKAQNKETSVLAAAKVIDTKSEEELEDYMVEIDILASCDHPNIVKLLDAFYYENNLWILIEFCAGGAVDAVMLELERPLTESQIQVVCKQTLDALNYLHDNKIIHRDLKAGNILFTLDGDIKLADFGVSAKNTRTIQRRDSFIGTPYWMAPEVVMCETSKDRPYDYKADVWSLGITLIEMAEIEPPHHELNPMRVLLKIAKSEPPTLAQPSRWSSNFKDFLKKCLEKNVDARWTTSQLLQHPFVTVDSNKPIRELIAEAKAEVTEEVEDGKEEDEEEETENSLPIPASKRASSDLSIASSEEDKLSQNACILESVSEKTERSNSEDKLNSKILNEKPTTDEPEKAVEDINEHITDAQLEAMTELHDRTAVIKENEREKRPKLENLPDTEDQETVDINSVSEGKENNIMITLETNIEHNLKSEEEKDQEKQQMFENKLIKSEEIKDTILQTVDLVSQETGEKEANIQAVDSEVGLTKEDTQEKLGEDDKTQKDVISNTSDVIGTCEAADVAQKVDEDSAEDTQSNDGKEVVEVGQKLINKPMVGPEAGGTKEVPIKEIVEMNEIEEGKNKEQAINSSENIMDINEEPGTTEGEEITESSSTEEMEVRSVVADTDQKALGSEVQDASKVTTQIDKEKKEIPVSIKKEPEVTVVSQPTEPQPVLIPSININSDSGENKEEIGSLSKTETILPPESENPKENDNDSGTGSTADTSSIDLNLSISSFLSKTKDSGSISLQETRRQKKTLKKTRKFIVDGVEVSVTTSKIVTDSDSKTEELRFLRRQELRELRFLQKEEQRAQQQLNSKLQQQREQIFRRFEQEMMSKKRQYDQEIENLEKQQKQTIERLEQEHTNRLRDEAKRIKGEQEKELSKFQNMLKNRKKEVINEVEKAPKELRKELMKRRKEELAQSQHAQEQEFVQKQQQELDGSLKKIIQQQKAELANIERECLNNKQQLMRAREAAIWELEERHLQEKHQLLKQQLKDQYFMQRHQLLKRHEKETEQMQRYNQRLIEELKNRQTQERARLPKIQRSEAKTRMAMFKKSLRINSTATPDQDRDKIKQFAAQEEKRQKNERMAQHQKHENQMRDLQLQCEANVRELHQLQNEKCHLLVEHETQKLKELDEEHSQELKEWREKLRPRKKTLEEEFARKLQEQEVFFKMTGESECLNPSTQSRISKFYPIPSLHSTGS

Structure (SMILES)	IC50 (CLK) [nM]	IC50 (SLK) [nM]	IC50 (DMPK) [nM]	IC50 (MERTK) [nM]	IC50 (DRAK1) [nM]	IC50 (AXL) [nM]
CN1CCN(c2ccc(Nc3ncc4c(n3)n3c(cc5ccccc53)c(=O)n4C)cc2)CC1 [Compound I-1]	50 to 250	50 to 250	50 to 250	250 to 1000	50 to 250	50 to 250
COc1cc(N2CCC(O)CC2)ccc1Nc1ncc2c(n1)n1c(cc3ccccc31)c(=O)n2C [Compound I-2]	250 to 1000	1000 to 5000	≥ 5000	≥ 5000	50 to 250	≥ 5000
COc1cc(N2CCN(C)CC2)ccc1Nc1ncc2c(n1)n1c(cc3ccccc31)c(=O)n2C [Compound I-3]	1000 to 5000	1000 to 5000	≥ 5000	≥ 5000	50 to 250	≥ 5000
COc1cc(C(=O)N2CCC(N3CCN(C)CC3)CC2)ccc1Nc1ncc2c(n1)n1c(cc3ccccc31)c(=O)n2C [Compound I-4]	50 to 250	1000 to 5000	250 to 1000	≥ 5000	1000 to 5000	≥ 5000
CN1CCN(c2ccc(Nc3ncc4c(n3)n3c(cc5ccccc53)c(=O)n4C)cc2C(F)(F)F)CC1 [Compound I-5]	1000 to 5000	250 to 1000	≥ 5000	1000 to 5000	250 to 1000	1000 to 5000
COc1cc(C2CCN(C)CC2)ccc1Nc1ncc2c(n1)n1c(cc3ccccc31)c(=O)n2C [Compound I-6]	50 to 250	1000 to 5000	250 to 1000	≥ 5000	250 to 1000	1000 to 5000
